Key:
VCaP cells = test: Cellular growth inhibition assay for VCaP cells, CellTiter-Glo; format: cell-based, human; conditions: Homo sapiens, VCaP, 72 h, 72 hours treatment, CellTiter-Glo 2.0
Method in brief: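 GI50 values come from four-parameter curve fits of luminescence data normalized to a zero baseline. Compound, in medium with 0.5% DMSO, was added one day after plating and left for 72 h before CellTiter-Glo 2.0 addition.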

[1] = tested on: T-Rex 293 cell line SC cells lacking increased expression of progesterone receptor isoform B protein; test: Cellular growth inhibition, T-Rex 293 SC cells without doxycycline, Example 45; format: cell-based; conditions: T-Rex 293 SC cells not exposed to doxycycline, 72 hours treatment, CellTiter-Glo 2.0
Protocol: The following types of cells were prepared for this experiment: (i) a T-Rex 293 cell line having increased expression of progesterone receptor isoform B protein due to exposure to doxycycline and (ii) a T-Rex 293 cell line lacking increased expression of progesterone receptor isoform B protein. Ability of the test compounds to inhibit proliferation of the foregoing cell types was evaluated according to the procedures set forth below.
The doxycycline-inducible progesterone receptor isoform B protein expressing cell line was established using the following protocol: T-Rex 293 cells were purchased from Invitrogen (Cat #R71007) and transfected using Lipofectamine 2000 with the wild-type progesterone receptor B protein sequence cloned into the pcDNA4/TO vector. Transfected cells were selected using 400 μg/mL Zeocin (Invitrogen Cat #R25001). Following selection, single clones were raised and maintained in Dulbecco's Modified Eagle Medium (DMEM) supplemented with 10% w/w Tetracycline-free fetal bovine serum (FBS) and 250 μg/mL Zeocin. Clones were analyzed for expression of progesterone receptor isoform B protein in the presence and absence of 10 ng/mL doxycycline (Sigma Cat #D9891), and a single doxycycline-inducible clone (hereinafter “SC”) was selected for use in downstream assays.
The SC cells were seeded on poly-D-lysine coated, black clear-bottom 384-well plates at 2500/well, in 25 μL Phenol Red Free Dulbecco's Modified Eagle Medium (DMEM) supplemented with 10% w/w charcoal-dextran treated fetal bovine serum (FBS) and 1% w/w pen-strep, with or without 10 ng/mL doxycycline. Pen-Strep is a commercially available mixture of penicillin G and streptomycin, which is used in mammalian cell culture media to prevent bacterial contamination. Phenol Red Free Dulbecco's Modified Eagle Medium (DMEM) supplemented with 10% w/w charcoal-dextran treated fetal bovine serum (FBS) and 1% w/w pen-strep, with or without 10 ng/mL doxycycline is herein referred to as Treatment Medium. Following seeding of cells in the plates, the plates were spun at 300×g for 30 seconds, then equilibrated to room temperature for 30 minutes, and then deposited in a humidified tissue culture incubator maintained at 37° C. with 5% CO2.
At 24 hours after seeding of the cells, dilutions of test compound were prepared in DMSO and dissolved in Treatment Medium, to achieve a final DMSO concentration of 0.5% w/w, thereby providing the Test Compound Solution. A 25 μL aliquot of the Test Compound Solution was added to cells in the well plates. An equal volume of a solution containing DMSO and Treatment Medium was used as a negative control. Following treatment of cells with Test Compound Solution or said equal volume of a solution containing DMSO and Treatment Medium, the plates were spun at 300×g for 30 seconds, and then left in an incubator for 72 hours.
At the end of the treatment duration, cell viability was quantified with CellTiter-Glo 2.0 reagent (Promega Cat #G9243). For this purpose, plates were equilibrated to room temperature for 30 minutes, and then 25 μL of CellTiter-Glo 2.0 reagent was added to cells in the plate wells. Plates were then agitated on a shaker for two minutes at 500 rpm and subsequently incubated at room temperature for 10 minutes. Following incubation, the plates were spun at 3000×g for 30 seconds, then sealed with an optical adhesive cover, and luminescence readings were measured with an EnVision Plate Reader (Perkin Elmer).
Data was normalized using zero luminescence for baseline. A four-parameter non-linear regression curve fit was applied to dose-response data in GraphPad Prism data analysis software to determine the half-maximal growth inhibitory concentration (GI50) for each test compound.

SMILES | GI50 (VCaP cells) [nM] | GI50 [1] [nM]
CCNC(=O)C[C@@H]1N=C(c2ccc(OCCOCCOC3CCN(c4ncc(C(=O)N[C@H]5C(C)(C)[C@H](Oc6ccc(C#N)c(Cl)c6)C5(C)C)cn4)CC3)cc2)c2c(sc(C)c2C)-n2c(C)nnc21 [Compound I-44] | < 500 | < 500
CCNC(=O)C[C@@H]1N=C(c2cccc(OCCOC3CCN(c4ncc(C(=O)N[C@H]5C(C)(C)[C@H](Oc6ccc(C#N)c(Cl)c6)C5(C)C)cn4)CC3)c2)c2c(sc(C)c2C)-n2c(C)nnc21 [Compound I-46, N-((1r,3r)-3-(3-chloro-4-cyanophenoxy)-2,2,4,4-tetramethylcyclobutyl)-2-(4-(2-(3-((S)-6-(2-(ethylamino)-2-oxoethyl)-2,3,9-trimethyl-6H-thieno[3,2-f][1,2,4]triazolo[4,3-a][1,4]diazepin-4-yl)phenoxy)ethoxy)piperidin-1-yl)pyrimidine-5-carboxamide] | 500 to 1500 | 500 to 1500
Cc1sc2c(c1C)C(c1ccc(OC3CC4(CCN(c5ncc(C(=O)N[C@H]6C(C)(C)[C@H](Oc7ccc(C#N)c(Cl)c7)C6(C)C)cn5)CC4)C3)cc1)=N[C@@H](Cc1ncco1)c1nnc(C)n1-2 [Compound I-49, N-[3-(3-chloro-4-cyano-phenoxy)-2,2,4,4-tetramethyl-cyclobutyl]-2-[2-[4-[(9S)-4,5,13-trimethyl-9-(oxazol-2-ylmethyl)-3-thia-1,8,11,12-tetrazatricyclo[8.3.0.02,6]trideca-2(6),4,7,10,12-pentaen-7-yl]phenoxy]-7-azaspiro[3.5]nonan-7-yl]pyrimidine-5-carboxamide] | < 500 | 500 to 1500
CCNC(=O)C[C@@H]1N=C(c2ccc(C#CCN3CCN(c4ncc(C(=O)N[C@H]5C(C)(C)[C@H](Oc6ccc(C#N)c(Cl)c6)C5(C)C)cn4)CC3)cc2)c2c(sc(C)c2C)-n2c(C)nnc21 [Compound I-54, N-[3-(3-chloro-4-cyano-phenoxy)-2,2,4,4-tetramethyl-cyclobutyl]-2-[4-[3-[4-[(9S)-9-[2-(ethylamino)-2-oxo-ethyl]-4,5,13-trimethyl-3-thia-1,8,11,12-tetrazatricyclo[8.3.0.02,6]trideca-2(6),4,7,10,12-pentaen-7-yl]phenyl]prop-2-ynyl]piperazin-1-yl]pyrimidine-5-carboxamide] | < 500 | < 500
Cc1sc2c(c1C)C(c1ccc(C#CCN3CCN(c4ncc(C(=O)N[C@H]5C(C)(C)[C@H](Oc6ccc(C#N)c(Cl)c6)C5(C)C)cn4)CC3)cc1)=N[C@@H](CC(=O)OC(C)(C)C)c1nnc(C)n1-2 [Compound I-55] | > 3000 | 500 to 1500
CCNC(=O)C[C@@H]1N=C(c2ccc(OC3CCN(c4ncc(C(=O)N[C@H]5C(C)(C)[C@H](Oc6ccc(C#N)c(Cl)c6)C5(C)C)cn4)CC3)cc2)c2c(sc(C)c2C)-n2c(C)nnc21 [Compound I-61] | 500 to 1500 | 500 to 1500
CCNC(=O)C[C@@H]1N=C(c2ccc(OCCCC#Cc3ncc(C(=O)N[C@H]4C(C)(C)[C@H](Oc5ccc(C#N)c(Cl)c5)C4(C)C)cn3)cc2)c2c(sc(C)c2C)-n2c(C)nnc21 [Compound I-83] | 500 to 1500 | 500 to 1500
CCNC(=O)C[C@@H]1N=C(c2ccc(Oc3ncc(C(=O)N[C@H]4C(C)(C)[C@H](Oc5ccc(C#N)c(Cl)c5)C4(C)C)cn3)cc2)c2c(sc(C)c2C)-n2c(C)nnc21 [Compound I-84] | 500 to 1500 | 500 to 1500
CCNC(=O)C[C@@H]1N=C(c2ccc(OC3CCN(C4CCN(c5ncc(C(=O)N[C@H]6C(C)(C)[C@H](Oc7ccc(C#N)c(Cl)c7)C6(C)C)cn5)CC4)C3)cc2)c2c(sc(C)c2C)-n2c(C)nnc21 (stereo partly shown) [Compound I-85] | < 500 | 500 to 1500
CCNC(=O)C[C@@H]1N=C(c2ccc(N(C3CC3)C3CN(CC4CCN(c5ncc(C(=O)N[C@H]6C(C)(C)[C@H](Oc7ccc(C#N)c(Cl)c7)C6(C)C)cn5)CC4)C3)cc2)c2c(sc(C)c2C)-n2c(C)nnc21 [Compound I-129] | < 500 | 500 to 1500
CCNC(=O)C[C@@H]1N=C(c2ccc(N(C)C3CC(OC4CCN(c5ncc(C(=O)N[C@H]6C(C)(C)[C@H](Oc7ccc(C#N)c(Cl)c7)C6(C)C)cn5)CC4)C3)cc2)c2c(sc(C)c2C)-n2c(C)nnc21 (stereo partly shown) [Compound I-130] | 500 to 1500 | < 500
Cc1sc2c(c1C)C(c1ccc(CC3CC(C4CCN(c5ncc(C(=O)N[C@H]6C(C)(C)[C@H](Oc7ccc(C#N)c(Cl)c7)C6(C)C)cn5)CC4)C3)cc1)=NC(Cc1ncco1)c1nnc(C)n1-2 (stereo partly shown) [Compound I-136] | < 500 | > 3000
Cc1sc2c(c1C)C(c1ccc(CC3CN(CC4CCN(c5ncc(C(=O)N[C@H]6C(C)(C)[C@H](Oc7ccc(C#N)c(Cl)c7)C6(C)C)cn5)CC4)C3)cc1)=N[C@@H](Cc1ncco1)c1nnc(C)n1-2 [Compound I-153] | < 500 | < 500
Cc1sc2c(c1C)C(c1ccc(C[C@H]3C[C@@H]([C@@H]4CCCN(c5ncc(C(=O)N[C@H]6C(C)(C)[C@H](Oc7ccc(C#N)c(Cl)c7)C6(C)C)cn5)C4)C3)cc1)=N[C@@H](Cc1ncco1)c1nnc(C)n1-2 [Compound I-161] | < 500 | > 3000
Cc1sc2c(c1C)C(c1ccc(OC3CN(CC4CCN(c5ncc(C(=O)N[C@H]6C(C)(C)[C@H](Oc7ccc(C#N)c(Cl)c7)C6(C)C)cn5)CC4)C3)cc1)=N[C@H](Cc1ncco1)c1nnc(C)n1-2 [Compound I-169] | < 500 | < 500
Cc1sc2c(c1C)C(c1ccc(O[C@H]3CC[C@@]4(CCCN(c5ncc(C(=O)N[C@H]6C(C)(C)[C@H](Oc7ccc(C#N)c(Cl)c7)C6(C)C)cn5)C4)CC3)cc1)=N[C@@H](Cc1ncco1)c1nnc(C)n1-2 [Compound I-172] | 500 to 1500 | 500 to 1500
Cc1sc2c(c1C)C(c1ccc(N3CC(C4CCN(c5ncc(C(=O)N[C@H]6C(C)(C)[C@H](Oc7ccc(C#N)c(Cl)c7)C6(C)C)cn5)CC4)C3)cc1)=NC(Cc1ncco1)c1nnc(C)n1-2 (stereo partly shown) [Compound I-209] | < 500 | 500 to 1500
Cc1sc2c(c1C)C(c1ccc(C3CC3C3CC4(CCN(c5ncc(C(=O)N[C@H]6C(C)(C)[C@H](Oc7ccc(C#N)c(Cl)c7)C6(C)C)cn5)CC4)C3)cc1)=N[C@@H](Cc1ncco1)c1nnc(C)n1-2 (stereo partly shown) [Compound I-237] | < 500 | > 3000
Cc1sc2c(c1C)C(c1ccc(CCC3CC4(CCCN(c5ncc(C(=O)N[C@H]6C(C)(C)[C@H](Oc7ccc(C#N)c(Cl)c7)C6(C)C)cn5)C4)C3)cc1)=N[C@@H](Cc1ncco1)c1nnc(C)n1-2 [Compound I-241] | > 3000 | 500 to 1500
Cc1sc2c(c1C)C(c1ccc(C#CC3CC4(CCN(c5ncc(C(=O)N[C@H]6C(C)(C)[C@H](Oc7ccc(C#N)c(Cl)c7)C6(C)C)cn5)CC4)C3)cc1)=N[C@@H](Cc1ncco1)c1nnc(C)n1-2 [Compound I-267] | < 500 | 500 to 1500
Cc1sc2c(c1C)C(c1ccc(N3CC(CC4CCN(c5ncc(C(=O)N[C@H]6C(C)(C)[C@H](Oc7ccc(C#N)c(Cl)c7)C6(C)C)cn5)CC4)C3)cc1)=N[C@@H](C)c1nnc(C)n1-2 [Compound I-270] | 1500 to 3000 | 500 to 1500
Cc1sc2c(c1C)C(c1ccc(N3CC(C4CCN(c5ncc(C(=O)N[C@H]6C(C)(C)[C@H](Oc7ccc(C#N)c(Cl)c7)C6(C)C)cn5)CC4)C3)cc1)=N[C@@H](C)c1nnc(C)n1-2 [Compound I-271] | > 3000 | 500 to 1500
Cc1sc2c(c1C)C(c1ccc(OC3CC4(C3)CC3(CCN(c5ncc(C(=O)N[C@H]6C(C)(C)[C@H](Oc7ccc(C#N)c(Cl)c7)C6(C)C)cn5)CC3)C4)cc1)=N[C@@H](Cc1ncco1)c1nnc(C)n1-2 [Compound I-283] | < 500 | > 3000

— US20260062422A1 (Halda Therapeutics OpCo, Inc., priority 2022, published 2026)
